Data from patent US8877748B2, “Heterocyclic fused anthraquinone derivatives, manufacturing method and pharmaceutical composition using thereof” (National Defense Medical Center, priority 2012, dated 2014).
Like-named read-outs stand apart in the source and are kept apart here.

Tests used:
[1] = test system: PC-3 prostate cancer cell line; test: SRB assay cell viability, PC-3 prostate cancer cell line; format: cell-based, human; settings: Homo sapiens
[2] = test system: CCRF-CEM; test: NCI screening platform one-dose single concentration screening, leukemia CCRF-CEM; format: cell-based, human; settings: 10 μM
[3] = test system: HL-60, TB; test: NCI one-dose screening, leukemia HL-60, TB; format: cell-based, human; settings: 10 μM
[4] = test system: MOLT-4; test: NCI one-dose screening, leukemia MOLT-4; format: cell-based, human; settings: 10 μM
[5] = test system: SR; test: NCI one-dose screening, leukemia SR; format: cell-based, human; settings: 10 μM
[6] = test system: PRMI-8226 cell line; test: NCI one-dose screening, leukemia PRMI-8226; format: cell-based, human; settings: 10 μM
[7] = test system: K562cell line; test: NCI one-dose screening, leukemia K562; format: cell-based, human; settings: 10 μM
[8] = test system: HOP-62; test: NCI one-dose screening, non-small cell lung cancer HOP-62; format: cell-based, human; settings: 10 μM
[9] = test system: HOP-92; test: NCI one-dose screening, non-small cell lung cancer HOP-92; format: cell-based, human; settings: 10 μM
[10] = test system: NCI-H23; test: NCI one-dose screening, non-small cell lung cancer NCI-H23; format: cell-based, human; settings: 10 μM
[11] = test system: NCI-H322M; test: NCI one-dose screening, non-small cell lung cancer NCI-H322M; format: cell-based, human; settings: 10 μM; Non-small cell lung cancer
[12] = test system: NCI-H460; test: NCI one-dose screening, non-small cell lung cancer NCI-H460; format: cell-based, human; settings: 10 μM
[13] = test system: NCI-H522; test: NCI one-dose screening, non-small cell lung cancer NCI-H522; format: cell-based, human; settings: 10 μM
[14] = test system: A549/ATCC; test: NCI one-dose screening, non-small cell lung cancer A549/ATCC; format: cell-based, human; settings: 10 μM
[15] = test system: COLO 205; test: NCI one-dose screening, colon cancer COLO 205; format: cell-based, human; settings: 10 μM
[16] = test system: HCC-2998; test: NCI one-dose screening, colon cancer HCC-2998; format: cell-based, human; settings: 10 μM
[17] = test system: HCT-116; test: NCI one-dose screening, colon cancer HCT-116; format: cell-based, human; settings: 10 μM
[18] = test system: HCT-15; test: NCI one-dose screening, colon cancer HCT-15; format: cell-based, human; settings: 10 μM
[19] = test system: KM12; test: NCI one-dose screening, colon cancer KM12; format: cell-based, human; settings: 10 μM
[20] = test system: SF-268; test: NCI one-dose screening, CNS cancer SF-268; format: cell-based, human; settings: 10 μM
[21] = test system: SF-295; test: NCI one-dose screening, CNS cancer SF-295; format: cell-based, human; settings: 10 μM
[22] = test system: SF-539; test: NCI one-dose screening, CNS cancer SF-539; format: cell-based, human; settings: 10 μM
[23] = test system: SNB-19; test: NCI one-dose screening, CNS cancer SNB-19; format: cell-based, human; settings: 10 μM
[24] = test system: SNB-75; test: NCI one-dose screening, CNS cancer SNB-75; format: cell-based, human; settings: 10 μM
[25] = test system: U251; test: NCI one-dose screening, CNS cancer U251; format: cell-based, human; settings: 10 μM
[26] = test system: LOX IMVI; test: NCI one-dose screening, melanoma LOX IMVI; format: cell-based, human; settings: 10 μM
[27] = test system: MALME-3M; test: NCI one-dose screening, melanoma MALME-3M; format: cell-based, human; settings: 10 μM
[28] = test system: M14; test: NCI one-dose screening, melanoma M14; format: cell-based, human; settings: 10 μM
[29] = test system: UACC-62; test: NCI one-dose screening, melanoma UACC-62; format: cell-based, human; settings: 10 μM
[30] = test system: UACC-257; test: NCI one-dose screening, melanoma UACC-257; format: cell-based, human; settings: 10 μM
[31] = test system: SK-MEL-2; test: NCI one-dose screening, melanoma SK-MEL-2; format: cell-based, human; settings: 10 μM
[32] = test system: SK-MEL-28; test: NCI one-dose screening, melanoma SK-MEL-28; format: cell-based, human; settings: 10 μM
[33] = test system: SK-MEL-5; test: NCI one-dose screening, melanoma SK-MEL-5; format: cell-based, human; settings: 10 μM
[34] = test system: IGROV1; test: NCI one-dose screening, ovarian cancer IGROV1; format: cell-based, human; settings: 10 μM
[35] = test system: OVCAR-3; test: NCI one-dose screening, ovarian cancer OVCAR-3; format: cell-based, human; settings: 10 μM
[36] = test system: OVCAR-4; test: NCI one-dose screening, ovarian cancer OVCAR-4; format: cell-based, human; settings: 10 μM
[37] = test system: OVCAR-8; test: NCI one-dose screening, ovarian cancer OVCAR-8; format: cell-based, human; settings: 10 μM
[38] = test system: SK-OV-3; test: NCI one-dose screening, ovarian cancer SK-OV-3; format: cell-based, human; settings: 10 μM
[39] = test system: 786-O; test: NCI one-dose screening, renal cancer 786-O; format: cell-based, human; settings: 10 μM
[40] = test system: CAKI-1; test: NCI one-dose screening, renal cancer CAKI-1; format: cell-based, human; settings: 10 μM
[41] = NCI one-dose screening, renal cancer A489; format: cell-based, human; settings: 10 μM
[42] = test system: SN12C; test: NCI one-dose screening, renal cancer SN12C; format: cell-based, human; settings: 10 μM
[43] = test system: TK-10; test: NCI one-dose screening, renal cancer TK-10; format: cell-based, human; settings: 10 μM
[44] = test system: UO-31; test: NCI one-dose screening, renal cancer UO-31; format: cell-based, human; settings: 10 μM
[45] = test system: RXF, 393; test: NCI one-dose screening, renal cancer RXF, 393; format: cell-based, human; settings: 10 μM
[46] = test system: DU145; test: NCI one-dose screening, prostate cancer DU145; format: cell-based, human; settings: 10 μM
[47] = test system: PC-3; test: NCI one-dose screening, prostate cancer PC-3; format: cell-based, human; settings: 10 μM
[48] = test system: MCF7; test: NCI one-dose screening, breast cancer MCF7; format: cell-based, human; settings: 10 μM
[49] = test system: HS 578-T; test: NCI one-dose screening, breast cancer HS 578-T; format: cell-based, human; settings: 10 μM; Breast cancer
[50] = test system: MDA-MB-231/ATCC; test: NCI one-dose screening, breast cancer MDA-MB-231/ATCC; format: cell-based, human; settings: 10 μM
[51] = test system: MDA-MB-468; test: NCI one-dose screening, breast cancer MDA-MB-468; format: cell-based, human; settings: 10 μM
[52] = test system: NCl/ADR-RES; test: NCI one-dose screening, breast cancer NCl/ADR-RES; format: cell-based, human; settings: 10 μM; listed under Ovarian cancer
[53] = test system: BT-549; test: NCI one-dose screening, breast cancer BT-549; format: cell-based, human; settings: 10 μM
[54] = test system: T-47D; test: NCI one-dose screening, breast cancer T-47D; format: cell-based, human; settings: 10 μM
[55] = test system: MDA, -MB-435; test: NCI one-dose screening, breast cancer MDA, -MB-435; format: cell-based, human; settings: 10 μM; listed under Melanoma
[56] = test system: human tumor cell lines; test: NCI one-dose screening, Mean / Delta / Range of growth percent over all tested cell lines; format: cell-based; settings: 10 μM

SMILES: O=C1c2ccccc2C(=O)c2c1cc(SCc1ccccc1)c1nsnc21 [C21, 4-(benzyl-thio)anthra[2,1-c][1,2,5] thiadiazol-6,11-dione]
- IC50 ([1]; PC-3 prostate cancer cell line, Table II prints no unit, μM printed, read-out: SRB assay: 50% inhibition of cancer cell proliferation of sample concentration (IC50) of PC-3 prostate cancer cell line): > 15 µM
- IC50 ([1]; PC-3 prostate cancer cells, read-out: IC50 in PC-3 prostate cancer cells (cell viability analysis)): > 15 µM
- Growth Percent CCRF-CEM [2]: 0.65%
- Growth Percent HL-60(TB) [3]: 70.32%
- Growth Percent MOLT-4 [4]: −20.97%
- Growth Percent SR [5]: 1.25%
- Growth Percent RPMI-8226 [6]: 43.23%
- Growth Percent K562 [7]: 10.51%
- Growth Percent HOP-62 [8]: 94.98%
- Growth Percent HOP-92 [9]: 83.65%
- Growth Percent NCI-H23 [10]: 101.09%
- Growth Percent NCI-H322M [11]: 55.30%
- Growth Percent NCI-H460 [12]: 98.44%
- Growth Percent NCI-H522 [13]: 92.01%
- Growth Percent A549/ATCC [14]: 101.64%
- Growth Percent COLO 205 [15]: 102.93%
- Growth Percent HCC-2998 [16]: 115.02%
- Growth Percent HCT-116 [17]: 53.06%
- Growth Percent HCT-15 [18]: 54.72%
- Growth Percent KM12 [19]: 103.02%
- Growth Percent SF-268 [20]: 56.01%
- Growth Percent SF-295 [21]: 91.56%
- Growth Percent SF-539 [22]: 68.26%
- Growth Percent SNB-19 [23]: 94.26%
- Growth Percent SNB-75 [24]: 39.58%
- Growth Percent U251 [25]: 30.51%
- Growth Percent LOX IMVI [26]: 7.49%
- Growth Percent MALME-3M [27]: 80.81%
- Growth Percent M14 [28]: 86.54%
- Growth Percent UACC-62 [29]: 43.08%
- Growth Percent UACC-257 [30]: 58.86%
- Growth Percent SK-MEL-2 [31]: −3.95%
- Growth Percent SK-MEL-28 [32]: 95.00%
- Growth Percent SK-MEL-5 [33]: 22.53%
- Growth Percent IGROV1 [34]: 43.88%
- Growth Percent OVCAR-3 [35]: 25.27%
- Growth Percent OVCAR-4 [36]: −68.15%
- Growth Percent OVCAR-8 [37]: 6.01%
- Growth Percent SK-OV-3 [38]: 80.29%
- Growth Percent 786-0 [39]: 92.60%
- Growth Percent CAKI-1 [40]: 73.77%
- Growth Percent A498 [41]: 88.61%
- Growth Percent SN12C [42]: 66.11%
- Growth Percent TK-10 [43]: 129.90%
- Growth Percent UO-31 [44]: 73.75%
- Growth Percent RXF 393 [45]: 68.12%
- Growth Percent DU145 [46]: 82.23%
- Growth Percent PC-3 [47]: 38.44%
- Growth Percent MCF7 [48]: 56.44%
- Growth Percent HS 578T [49]: 59.96%
- Growth Percent MDA-MB-231/ATCC [50]: −13.36%
- Growth Percent MDA-MB-468 [51]: −85.29%
- Growth Percent NCI/ADR-RES [52]: 62.34%
- Growth Percent BT-549 [53]: 96.19%
- Growth Percent T-47D [54]: −46.11%
- Growth Percent MDA-MB-435 [55]: −48.29%
- Growth Percent Delta ([56]; delta over all cell lines): 136.92%
- Growth Percent Mean ([56]; mean over all cell lines): 51.63%
- Growth Percent Range ([56]; range over all cell lines): 215.19%
